Test results reported in patent US8304452B2, “Radical scavenger and active oxygen eliminating agent” (InBiotex Inc., priority 2005, dated 2012).

How the values were obtained:
[1] = test system: human LDL; assay: Lipid peroxide-suppressing action: CuSO4-induced LDL oxidation, TBARS assay (Example 1); assay type: biochemical; details: for Amount of TBARS: 0.2 mg/mL LDL + 5 μM CuSO4, 37° C., 3 hours, mean, n=2
Protocol: As an action of capturing free group (free radical-scavenging action), the effect of N-β-alanyl-5-S-glutathionyl-3,4-dihydroxyphenylalanine (5-S-GAD) on LDL oxidation was examined. As controls, dopamine and Carnosine (under trade name; N-acetylcarnosine as the ingredient name) used as eye drops for cataract were used. LDL was prepared by a fractionation and centrifugation method. A fraction at a specific gravity of 1.019 to 1.063 g/mL in serum was defined as human LDL. 5 μM CuSO4, 5-S-GAD (3 to 100 μM) and N-acetyl-carnosine (100 μM to 10 mM) or L-carnosine (10 μM to 10 mM) were added to 0.2 mg/mL LDL, for incubation at 37° C. for 3 hours. After termination of the incubation, TBARS (a substance reactive with thiobarbituric acid) was assayed. Although the TBA reaction is a non-specific reaction, the reaction is used for a method of assaying various lipid peroxide products including malone dialdehyde. An experiment of peroxidation with copper sulfate was done twice (N=2). An aqueous solution containing 3.75 mg/mL thiobarbituric acid (TBA), 150 mg/mL trichloroacetic acid (TCA) and 0.25 N hydrochloric acid (HCl) was prepared as the TBA reagent, while tetramethoxypropane was used to prepare standard solutions (2, 5, 10, 20, 40 μM). 100 μL each of an LDL sample or a standard solution was added together with 200 μL of the TBA reagent into an Eppendorf tube (1.5 mL), which was then sealed with a cap for thorough mixing. After heating at 95° C. for 15 minutes, the resulting mixture was cooled in water and centrifuged at 3000 rpm for 5 minutes. The supernatant was assayed of the absorbance (535 nm). Based on the absorbance of the standard solutions, a standard curve was prepared. Based on the standard curve, the amount of TBARS in the LDL sample was calculated (in nmol/mg LDL protein) (mean, n=2, see Table 1 and FIG. 1).

[2] = DPPH-scavenging action (Example 2); assay type: biochemical; details: for Radical-scavenging ratio (%): DPPH, ambient temperature, 5 minutes, mean, n=2
Protocol: DPPH (1,1-diphenyl-2-picrylhydrazyl) is one of nitrogen radicals and is a very stable radical, which is commercially available as a black-purple crystal (Wako Pure Chemical, Co., Ltd., etc.). N-β-Alanyl-5-S-glutathionyl-3,4-dihydroxyphenylalanine (5-S-GAD) (see Table 2) or Carnosine (under trade name) (see Table 3) was added to an ethanol solution of […] DPPH radical, for reaction at ambient temperature for 5 minutes (see the following reaction scheme). Instead of the test reagent, distilled water was added to the ethanol solution, which was used as a background. The DPPH absorbance at 517 nm was assayed, to calculate the scavenging ratio (%) of the DPPH radical according to the following equation. The scavenging ratio was defined as radical scavenger activity (mean, n=2; see Table 2, Table 3 and FIG. 2).
Radical-scavenging ratio (%)=[assay value of background (mean)−assay value of solution at each concentration]/background assay value (mean)]×100

Structure (SMILES): NCCC(=O)N[C@@H](Cc1cc(O)c(O)c(SC[C@H](NC(=O)CC[C@H](N)C(=O)O)C(=O)NCC(=O)O)c1)C(=O)O [5-S-GAD, N-β-alanyl-5-S-glutathionyl-3,4-dihydroxyphenylalanine]
- Amount of TBARS ([1]; 10 μM added): 85.683 nmol/mg LDL protein
- Amount of TBARS ([1]; 30 μM added): 4.290 nmol/mg LDL protein
- Amount of TBARS ([1]; 100 μM added): 2.649 nmol/mg LDL protein
- anti-oxidation action, level relative to Carnosine (under trade name) ([1]; LDL oxidation, TBARS): 10 fold
- anti-oxidation action, level relative to dopamine ([1]; LDL oxidation, TBARS): the same level as that of dopamine
- Radical-scavenging ratio (%) ([2]; 1 μM added): 3.918%
- Radical-scavenging ratio (%) ([2]; 3 μM added): 13.891%
- Radical-scavenging ratio (%) ([2]; 10 μM added): 73.762%
- Radical-scavenging ratio (%) ([2]; 30 μM added): 93.487%
- action for scavenging the DPPH radical (in words) ([2]; summary of Table 2, Table 3 and FIG. 2): strong actions for scavenging the DPPH radical
